What was measured:
Assay type in all cases: cell-based
[1] = test system: N-Myc; assay: N-Myc mRNA and protein levels (qPCR, western blot); conditions: SK-N-BE(2) cells, 1 μM NEN
Method: Protein extraction and immunoblot. Cells were washed with ice-cold PBS buffer (Invitrogen, 20012050) and lysed with harvest buffer (10 mM Hepes pH 7.9, 50 mM NaCl, 500 mM sucrose, 0.1 mM EDTA and 0.5% Trition X-100) supplemented with 1% Halt inhibitors (Thermo Scientific™, 78443) for 10 minutes. Cell lysate was centrifuged at 3000 rpm for 3 min at 4° C. The supernatant containing cytosolic proteins was transferred to a different tube. The pellet containing nuclear proteins was dissolved with nuclear lysis buffer (10 mM Hepes pH 7.9, 0.5M NaCl, 0.1 mM EDTA, 0.1 mM EGTA and 0.1% NP40) supplemented with 1% Halt inhibitors (Thermo Scientific™, 78443) for 5 minutes at 4° C. Then the solution was sonicated at 4° C. for 6 cycles (1 cycle=30 s sonication and 30 s cooldown with “High” energy intensity) using a Bioruptor® Plus sonication (Diagenode, UCD-300). After sonication, the solution was centrifuged at 15,000 rpm for 10 minutes. The supernatant was kept as nuclear extraction. Protein concentration was determined by BCA assay (Thermo Scientific, 23227). […] Signals were detected with an ECL kit (Thermo Scientific™, 34577) by using BioRad Universal Hood II. […] Quantitative PCR amplification was performed on the Prism 7900 Sequence Detection System (Applied Biosystems) using Taqman Gene Expression Assays (Applied Biosystems). […]

[2] = test system: SK-N-BE(2) cells; assay: Neurite outgrowth and β-tubulin III immunofluorescence (neuron differentiation); conditions: 72-96 h
Method: (§1) Neurite outgrowth assay. The quantification of neurite was performed as described before. Shortly, 1×10^4 SK-N-BE(2) and NB16 cells were plated in a 12 well-plate per well. After overnight incubation, cells were treated with various conditions as indicated for 72 h. Then, images were taken by a Leica Florescent Microscope DMi8 in phase contrast mode (20× magnification). The lengths of the neurites were traced and quantified using the ImageJ plugin NeuronJ. For each sample, total neurite length was measured and normalized to the number of cell bodies, mean value from 3 biological replicates was reported. Immunofluorescence staining. SK-N-BE(2) and NB16 cells were seeded into 8-chamber slides (Thermo Fisher Scientific, 154534) with a density of 6×10^3 cells/well overnight and treated with indicated treatment for 72 h. Cells were fixed with 4% PFA in PBS with 0.1% Tween-20 at RT for 30 minutes followed by permeabilization with 0.1% Triton X-100 in PBS at room temperature for 10 min. The cells were washed with PBS twice and blocked with 2.5% horse serum in PBS at RT for 1 h. Then, cells were subjected to immunofluorescence staining with primary antibody at 4° C. overnight. After two washes with PBS, cells were incubated with Alexa Fluor 594-conjugated anti-rabbit secondary antibody (Life Technologies) at RT for 1 h followed by staining with DAPI (Vector Laboratories, H-1800-2). Images were acquired with Leica DMi8 microscope.

[3] = test system: NB16 cells; assay: as above; conditions: 72-96 h
Method: as §1

## O=C(Nc1ccc([N+](=O)[O-])cc1Cl)c1cc(Cl)ccc1O [NEN, 5-chloro-N-(2-chloro-4-nitrophenyl)-2-hydroxybenzamide compound with 2-aminoethanol (1:1)]
[1]
  mRNA level of N-Myc: significantly reduced
  protein level of N-Myc: significantly reduced
[2]; 1 μM NEN + 1 μM 13-cis-RA
  neuron differentiation morphology, NEN combined with RA vs NEN alone: more profound
[2]; 1 μM NEN alone
  neuron differentiation morphology (neurite length, β-tubulin III staining): induced
[3]; NB16, 1 μM NEN + 1 μM 13-cis-RA
  neuron differentiation morphology, NEN combined with RA vs NEN alone: more profound
[3]; NB16, 1 μM NEN alone
  neuron differentiation morphology (neurite length, β-tubulin III staining): induced

Source: patent US11918550B2, “Sensitization of cancer cells to differentiation therapy with mitochondrial uncoupler niclosamide ethanolamine” (The Board of Trustees of the Leland Stanford Junior …, priority 2020, dated 2024)
